Results from patent US8691749B2, “Peptide and use thereof” (Ensoltek Co., Ltd., priority 2009, dated 2014).

How the values were obtained:
TGF-beta1 signaling = TGF-beta1 signaling inhibition: phosphorylated Smad2 Western blot in HepG2 cells; assay type: cell-based
Description: Inhibition of TGF-beta1 signaling by the peptide of Example 1 was confirmed in accordance with the following experimental method.
Treatment of HepG2 cells with TGF-beta1 is known to result in apoptosis, during which Smad2 is first phosphorylated (Park T J. et al., Mol. Carcinog. 47:784-796, 2008; and Gressner A M. et al., J Hepatol. 26:1079-1092, 1997). Using these properties, the experiment was carried out as follows. 1×10^6 of HepG2 cells (ATCC; American Type Culture Collection) were seeded in a 60 mm dish, stabilized overnight, and then depleted of nutrients by serum-free media (SFM) for 24 hours. Prior to treatment of the cells with the peptide of Example 1, 5 ng/mL of TGF-beta1 (PromoKine, Germany) and the above peptide (1, 5, and 25 μM) were subjected to pre-incubation at 37° C. for 1 hour. Further, DMSO (2 μl/mL) was also pre-incubated with TGF-beta1 (5 ng/mL) at 37° C. for 1 hour. Then, the cells were treated with the pre-incubated solutions for 30 minutes, followed by extraction of proteins. In addition, the cells were previously treated only with […] of SB431542 (TOCRIS, USA), an inhibitor of the TGF-beta receptor, followed by incubation for 1 hour, and then treated with TGF-beta1 (5 ng/mL) for 30 minutes. Then, the cells were homogenized on ice in Radioimmunoprecipitation (RIPA) Lysis Buffer (Millipore) {50 mM Tris-HCl (pH 7.4), 150 mM NaCl, 0.25% deoxycholic acid, 1% NP-40, 1 mM ethylenediaminetetraacetic acid (EDTA), 1 mM phenylmethylsulfonyl fluoride (PMSF), 40 mM NaF, 1 mM Na3VO4, 1 mM dithiothreitol (DTT)}. […]
FIG. 3 illustrates the Western blot results (Lane 1: non-treated HepG2 cells, Lane 2: TGF-beta1-treated cells, Lane 3: TGF-beta1/SB431542-treated cells, Lanes 4, 5 and 6: cells treated with 1, 5, and 25 μM of peptide/TGF-beta1, respectively, and Lane 7: TGF-beta1/DMSO-treated cells). […] The bottom of FIG. 3 illustrates the Coomassie Blue staining results of the membrane used in Western blot, showing that the quantity of the protein is the same in all the lanes.

degenerated disc tissue = test: Disc regeneration effects by disc tissue staining (H&E) in disc degeneration model; assay type: in vivo, rabbits (New Zealand white rabbits); conditions: 0.5 mM/animal, local intradiscal injection twice
Description: 30 rabbits (New Zealand white rabbits; Orient Bio Inc.), weighing 3 to 3.5 kg, were prepared irrespective of sex.
The rabbits were anesthetized by intramuscular injection of 5 mg/kg of xylazine (Rompun, Bayer) and 35 mg/kg of ketamine hydrochloride (Ketalar, Pfizer). Prior to the procedure, lateral plain X-ray using a fluoroscopic apparatus (Model VPX-200; Toshiba Co.) was obtained to establish the pre-injection baseline height of intervertebral disc. The baseline control refers to a standard for measurement of a disc space. After the rabbits were positioned on the laboratory table, L23, L34, L45, and L56 disc levels were confirmed by the machine, and annulus fibrosus was stabbed into the posterolateral side of the disc at L23, L45, and L56 levels, using an 18G needle. After recovery from the anesthesia, the animals were housed in a cage under the following breeding conditions: temperature 20-25° C., humidity 10%-50%, and Light/Dark (L/D) cycle: (light from 08:00 a.m. to 20:00 p.m.). All animals were fed once a day. X-ray photographs were taken 2 and 4 weeks after the initial annular puncture. The X-ray was taken after anesthesia. Based on the results of X-ray, an intervertebral disc height (IVD height) was measured. From the measurement results, disc degeneration degree was quantified by a modification of the method disclosed in Lu et al., Spine. 22:1828-34, 1997.
Thereafter, experiments were carried out for two separate groups, DMSO-administered control group and Example 1 peptide-administered experimental group, and the rabbits were euthanized by injection of ketamine (25 mg/kg) and sodium pentobarbital (1.2 g/kg, Nembutal, Ovation) according to the planned schedule, followed by extraction of the disc for histological and biochemical analysis, respectively.
Disc-degenerated rabbits from Section 2-1 were divided into two groups. Each group was given dimethyl sulfoxide (DMSO) and the peptide of Example 1 (0.5 mM/animal) by local intradiscal injection twice. The administration point for each group was 4 weeks after the induction of disc degeneration and 2 weeks thereafter. After the second administration, the animals were raised for 2, 4, and 8 weeks, respectively. At Weeks 4, 6, and 10 after the first administration of each of the Example 1 peptide and DMSO, the corresponding respective disc tissues were extracted and fixed in formalin. The fixed disc tissues were embedded in paraffin, and serial sections having a thickness of […] along the sagittal plane were prepared. Of these sections, two mid-sagittal sections were stained with hematoxylin and eosin (H&E). For the comparison with the normal disc tissue, the disc was extracted, treated and stained from the rabbits with no induction of disc degeneration according to the same method described above. […]

aggrecan gene = test: Aggrecan gene expression in disc tissues by real-time PCR in disc degeneration model; assay type: in vivo, rabbits (New Zealand white rabbits); conditions: Week 4 after first administration; 0.5 mM/animal intradiscal at Weeks 0 and 2
Description: Real-time PCR was carried out to examine a gene expression level of aggrecan, which is a representative extracellular matrix component in disc tissues.
In the same manner as in Example 2-1, animals were prepared and divided into two groups, to each of which DMSO and the peptide of Example 1 (0.5 mM/animal) were administered by local intradiscal injection. The administration point for each group was 4 weeks after the induction of disc degeneration and 2 weeks thereafter. After the second administration, the animals were raised for 2, 4, and 8 weeks, respectively. […]
The quantity of mRNA of GAPDH and aggrecan was examined by a Prism 7900HT (ABI) using PowerSYBR Green PCR Master Mix (Applied Biosystems Inc.). […] GAPDH was selected as a reference gene, and a CT value difference (ΔCT) between the reference gene and the aggrecan gene was calculated. In addition, a CT value difference (ΔΔCT) between the normal disc and the Example 1 peptide-administered disc (or DMSO-administered disc) was calculated. Then, 2^(−ΔΔCT) was calculated and expressed in terms of percentage relative to the normal disc value.

Compound | phosphorylation of Smad2 (TGF-beta1 signaling; pre-treated with 1004 of SB431542 for 1 hour, then TGF-beta1 5 ng/mL for 30 minutes) | distinction between nucleus pulposus and annulus fibrosus (degenerated disc tissue; Week 10) | extracellular matrix components in disc tissue (degenerated disc tissue; Week 10) | size of disc as compared to the DMSO-administered disc tissue (degenerated disc tissue; Week 10) | staining of cell nuclei in the nucleus pulposus region (degenerated disc tissue; Week 10, x400) | aggrecan gene expression as compared to the DMSO-administered disc tissue (aggrecan gene) | phosphorylation degree of Smad2 (TGF-beta1 signaling; peptide 1, 5 and 25 μM pre-incubated with TGF-beta1 5 ng/mL for 1 hour, cells treated 30 minutes) | extent of TGF-beta1 signaling inhibition (TGF-beta1 signaling; peptide 1, 5 and 25 μM, compared with SB431542)
NC(=O)c1ccc(-c2nc(-c3ccc4c(c3)OCO4)c(-c3ccccn3)[nH]2)cc1 [SB431542, reference compound] | complete inhibition of phosphorylation |  |  |  |  |  |  | 
LQVVYLH [Example 1] |  | discernible between the nucleus pulposus and the annulus fibrosus | abundance of extracellular matrix components | increased size of disc | vivid staining of the cell nuclei | increase in the aggrecan gene expression | decreased in a dose-dependent manner | does not completely inhibit TGF-beta1 signaling
